In publication PMC6690934, “High-density immobilization of a ginsenoside-transforming β-glucosidase for enhanced food-grade production of minor ginsenosides” (Applied Microbiology and Biotechnology, 2019):

Target: T1, MT619 (Microbacterium testaceum, UniProt E8N6P7)
T1 construct: gene MTES_2447; codon-optimized synthetic gene (MK575514); E. coli BL21; purified by Ni and DEAE columns
T1 sequence (E8N6P7 1-619): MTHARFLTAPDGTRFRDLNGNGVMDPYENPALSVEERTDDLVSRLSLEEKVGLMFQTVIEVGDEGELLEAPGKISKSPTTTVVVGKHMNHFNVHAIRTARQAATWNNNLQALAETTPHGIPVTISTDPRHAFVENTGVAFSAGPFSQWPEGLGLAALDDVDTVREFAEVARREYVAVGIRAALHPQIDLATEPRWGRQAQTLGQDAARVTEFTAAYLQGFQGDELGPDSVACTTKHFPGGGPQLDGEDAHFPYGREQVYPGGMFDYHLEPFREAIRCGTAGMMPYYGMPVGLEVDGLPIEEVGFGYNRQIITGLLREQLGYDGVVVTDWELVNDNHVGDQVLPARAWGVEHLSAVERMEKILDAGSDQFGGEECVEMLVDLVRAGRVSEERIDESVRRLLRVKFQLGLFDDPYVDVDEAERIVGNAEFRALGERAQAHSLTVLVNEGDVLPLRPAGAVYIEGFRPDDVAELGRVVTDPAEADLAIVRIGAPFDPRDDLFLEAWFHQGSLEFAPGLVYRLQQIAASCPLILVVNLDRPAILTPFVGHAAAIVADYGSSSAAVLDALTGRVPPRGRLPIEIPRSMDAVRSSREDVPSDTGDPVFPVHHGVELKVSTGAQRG
Assay: TLC of hydrolysis products
Assay type: biochemical
Settings: pH 7.0, 37 °C, 2.0 mg/mL substrate, 0.1 mg/mL enzyme

Question: Which “TLC of hydrolysis products” value does the source give for `CC(C)=CCC[C@](C)(O[C@@H]1O[C@H](CO[C@@H]2O[C@H](CO)[C@@H](O)[C@H](O)[C@H]2O)[C@@H](O)[C@H](O)[C@H]1O)[C@H]1CC[C@]2(C)[C@@H]1[C@H](O)C[C@@H]1[C@@]3(C)CC[C@H](O[C@@H]4O[C@H](CO)[C@@H](O)[C@H](O)[C@H]4O[C@@H]4O[C@H](CO)[C@@H](O)[C@H](O)[C@H]4O)C(C)(C)[C@@H]3CC[C@]12C` [Rb1] here?
Answer: Its value is “MT619 could clearly transform four major ginsenosides (Re, Rg1, Rb1, and Rd)”.
